Source: patent US20250339391A1, “METHODS FOR EFFECTIVE MANAGEMENT OF PAIN” (South Rampart Pharma, Inc., priority 2024, published 2025)

Experiments:
[1] = test system: Beagle dogs; assay: Single oral dose (capsule) toxicity and pharmacokinetic study in Beagle dogs (non-GLP); format: in vivo
Experimental: 2) A Single Oral Dose Toxicity and Pharmacokinetic Study of SRP-001 in Beagle Dogs (non-GLP) SRP-001 was prepared into capsules for oral administration. Three experimentally non-naïve Beagle dogs, at least 7 months old and weighing 7.7 to 10 kg prior to treatment initiation, were administered a single dose of 300 mg/kg SRP-001 (Calvert Labs/Altasciences, Scott Township, PA USA). On the day of dosing, animals were observed prior to dose administration, approximately 1-3 h post-dose, and once on day 2. Body weights were recorded for all animals prior to dose administration for the preparation of the capsules. Blood for bioanalytical evaluation was collected at selected timepoints on day 1. Following the completion of the study, surviving animals were not euthanized. They were returned to the Calvert colony for an appropriate washout period before possible use in a subsequent study. […] Plasma samples were collected at seven different time points post-dose.

[2] = test system: Sprague-Dawley rats; assay: 28-day oral toxicity study in Sprague-Dawley rats with 14-day recovery (GLP); format: in vivo
Description: 5) A 28-day Oral Toxicity Study of SRP-001 in Sprague-Dawley Rats with 14-day Recovery (GLP study) We next set out to determine the toxicity and toxicokinetics of SRP-001 when administered via oral gavage once daily to Sprague-Dawley Rats for 28 d (Calvert Labs/Altasciences, Scott Township, PA USA). The study also assessed the reversibility of any toxicity observed with a 14-d recovery period. One hundred thirty-six experimentally naïve Sprague-Dawley rats (68 males and 68 females), 8 weeks old and weighing 167-295 g for males and females at the outset of the study, were assigned to toxicology treatment groups (Groups 1-4) or toxicokinetic groups (Groups 5-7). For toxicology groups, 10 animals/sex/dose were administered 0, 300, 900, or 1500 mg/kg/d SRP-001. An additional 5 animals/sex/dose in Groups 1 and 4 were targeted for a 14-d recovery period and euthanized on day 43. For toxicokinetic groups, 6 animals/sex/dose were administered 300, 900, or 1500 mg/kg/d SRP-001. Mortality/morbidity was performed twice daily and once prior to scheduled sacrifice. Animals in Groups 1-4 were observed prior to each dose administration and 1-3 h post-dose. Animals in Groups 1-4 were also observed once daily on non-dosing days and once prior to scheduled sacrifice. Body weights were recorded prior to randomization/selection, prior to dose administration on day 1, and weekly thereafter. Food consumption was determined weekly for animals in Groups 1-4. Ophthalmology examinations were performed before treatment initiation and during the last week of dosing for animals in Groups 1-4. The functional observational battery was assessed for 5 animals/sex/group in Groups 1-4 once prior to dosing and at 1-2 h following dose administration on day 1. Blood for evaluation of hematology, coagulation, and clinical chemistry and urine for urinalysis was collected from animals in Groups 1-4 on day 29 or day 43. Blood for toxicokinetic evaluation was collected from animals in Groups 5-7 at selected timepoints on days 1 and 28. All surviving animals in Groups 1-4 were sacrificed on day 29 or day 43. Selected tissues were harvested at necropsy, selected organs weighed, and selected tissues evaluated microscopically.

[3] = Phase 1 multiple ascending dose (MAD) pharmacokinetics; format: in vivo, human
Experimental: A two-part randomized, double-blind, placebo-controlled Phase 1 trial was conducted to assess the safety, tolerability, PK and PD of SRP-001 ascending doses (Quotient Sciences, Miami, FL USA). The study was conducted in accordance with the International Council for Harmonisation of Technical Requirements for Pharmaceuticals for Human Use (ICH), Guideline for GCP: Consolidated Guidance (E6), and applicable regulatory requirements(s) including clinical research guidelines established by the Basic Principles defined in the U.S. 21 CFR Parts 50, 56, and 312 and the principles enunciated in the Declaration of Helsinki (revised version Fortaleza 2013). The clinical protocol and informed consent form were reviewed and approved by an Institutional Review Board (IRB; Advarra IRB, 6100 Merriweather Drive, Suite 600, Columbia, MD 21044; Quotient Protocol No. SRP-101 and Quotient Sciences Study No. QSC205130; Quotient Sciences Miami, 3898 NW 7th Street, Miami, FL 33126.). The study comprises a SAD (Part 1) assessment that includes a food effect assessment that contributes data to inform a subsequent MAD (Part 2) dose-ranging study. Safety measurements were collected throughout the study for all subjects. Blood samples were collected to determine the PK parameters of SRP-001. ClinicalTrials.gov identifier: NCT05484414

[4] = test system: male Beagle dogs; conditions: dog, in vivo
Experimental: 6) A Two-day Oral Dose Toxicity and Pharmacokinetic Study of SRP-001 in Beagle Dogs Non-GLP) SRP-001 was supplied by Olon Ricerca Bioscience as an off-white powder and then prepared as dosing suspensions for oral administration via gavage (Calvert Labs/Altasciences, Scott Township, PA USA). Six experimentally non-naïve male Beagle dogs (3/dose), at least 7 months old and weighing 7.2 to 10.2 kg prior to treatment initiation, were administered 100 or 900 mg/kg/d SRP-001. Animals were dosed three times daily (3-5 h between doses) for 2 d. Mortality/morbidity was performed twice daily. On the day of dosing, animals were observed prior to each dose administration and approximately 1-3 h after each dose. Animals were also observed once on day 3. Body weights were recorded for all animals prior to the first dose administration on days 1 and 3, and food consumption was recorded daily. Blood for bioanalytical evaluation was collected at selected timepoints on day 1. Following the completion of the study, surviving animals were not euthanized and were returned to the Calvert colony.

[5] = test system: Male rats; assay: Rat micronucleus in vivo study
Experimental: The induction of numerical aberrations was within the 95% control limit of the historical negative control data. […] Approximately 48 h after the second dose administration, peripheral blood was collected for flow cytometric analysis of micronuclei. There was no significant increase in the incidence of micronuclei in the test article-dosed animals compared to the concurrent vehicle control. The vehicle control value was compatible with the historical range of % micronucleated reticulocytes (MnRETs). There was a statistically significant increase in MnRETs in the positive control compared to the concurrent vehicle control. […] The vehicle control was 10% Labrasol, 10% DMSO, and 80% PEG400. The positive control for the Comet assay, ethyl methanesulfonate (EMS), was orally administered at 200 mg/kg/dose for two consecutive days at a dose volume of 10 mL/kg/dose. […] Animals were euthanized 3-4 h after the last dose administration. The liver and glandular stomach were collected and processed for comet evaluation.

SMILES: CCN(CC)C(=O)c1ccccc1S(=O)(=O)NCC(=O)Nc1ccc(O)cc1 [SRP-001, N,N-diethyl-2-[[2-(4-hydroxyanilino)-2-oxo-ethyl]sulfamoyl]benzamide]
- tolerability ([1]; dog, in vivo, 300 mg/kg): well tolerated
- bioavailability ([1]; single 300 mg/kg, capsules): poor bioavailability
- doses with minimal to mild centrilobular hepatocellular hypertrophy ([2]; both, Sprague-Dawley, rat, in vivo, 28 d): ≥ 300 mg/kg/day
- doses without treatment-related adverse effects ([2]; both, Sprague-Dawley, rat, in vivo, po, 28 d): up to 1500 mg/kg/day
- no-adverse effect level (NOAEL) ([2]; once daily for 28 d): 1500 mg/kg
- hematology and serum chemistry changes ([2]; rat, in vivo): increases in globulin, albumin, and total protein and decreases in aspartate aminotransferase, alkaline phosphatase, and mean corpuscular hemoglobin concentration
- T1/2, geometric mean ([3]; MAD 500 mg, Day 1): 3.06 h
- T1/2, geometric mean ([3]; MAD 1,000 mg, Day 1): 4.05 h
- T1/2, geometric mean ([3]; MAD 1,000 mg, Day 5): 9.77 h
- T1/2, arithmetic mean ([3]; MAD cohorts): 5.57 h
- PK parameters on Day 5 versus Day 1 ([3]; Phase 1 MAD cohort): demonstrated a decrease
- half-life ([3]; human, blood, summary aspect, read-out: half-life in said subject): 4.9 to 9.8 h
- emesis [4]: Nearly all animals had emesis
- amplification in peak plasma concentration ([4]; male, Beagle): 3-4 fold
- tolerated dose ([4]; male, Beagle, 2 d): 900 mg/kg/day
- incidence of micronuclei / clastogenicity ([5]; 500, 1,000 and 2,000 mg/kg/d oral, two days): negative (non-clastogenic)
- % RETs ([5]; treatment groups): Statistically significant decreases in % RETs
